Experimental data as given in patent publication US20250140406A1, “CLASSIFYING TUMORS AND PREDICTING RESPONSIVENESS” (Oncocyte Corporation, priority 2022, published 2025).

These compounds were tested on cancer cell lines classified IM, MSL, M (assay: PRISM screen compound sensitivity correlated with IM, MSL and M subtype of cell lines (101 gene signature)). Settings: not given.
Type: cell-based

| Compound | TNBCType train |
| --- | --- |
| COCC(O)Cn1ccnc1[N+](=O)[O-] (centres unmarked) [misonidazole] | MSL |

Same assay, conditions: subtype (IM, MSL or M) assigned to the compound by negative correlation of PRISM sensitivity with subtype; training cell set (371 cell lines), 101 gene signature

| Compound | TNBCType train |
| --- | --- |
| Cc1cc(Nc2cc(N3CCN(C)CC3)nc(/C=C/c3ccccc3)n2)n[nH]1 [ENMD-2076] | MSL |
| CN(C)c1cccc(-c2c3c(=O)n(-c4ccccc4Cl)[nH]c3cc(=O)n2C)c1 [GKT137831] | MSL |
| CCCCOc1nc(N)c2c(n1)N(Cc1cccc(CN3CCCC3)c1)CC(=O)N2 [GS-9620] | MSL |
| O=C(O)CCc1ccc(NCc2cccc(Oc3ccccc3)c2)cc1 [GW-9508] | MSL |
| CC(C)NC(=O)COc1cccc(-c2nc(Nc3ccc4[nH]ncc4c3)c3ccccc3n2)c1 [KD025] | MSL |
| Nc1cc(F)ccc1NC(=O)/C=C/c1cnn(C/C=C/c2ccccc2)c1 [RGFP966] | MSL |
| Cc1ccc(-c2ccc(C)cn2)nc1 [abametapir] | MSL |
| CC1(C)S[C@@H]2[C@H](NC(=O)[C@H](N)c3ccccc3)C(=O)N2[C@H]1C(=O)O [ampicillin] | MSL |
| Nc1ccn([C@H]2CO[C@@H](CO)S2)c(=O)n1 [apricitabine] | MSL |
| CCN(CC)CCn1c(=O)c(Cc2ccc(OC)cc2)nc2ccccc21 [caroverine] | MSL |
| N=C(N)N1CCc2ccccc2C1 [debrisoquin] | MSL |
| NS(=O)(=O)c1cc(Cl)c(Cl)c(S(N)(=O)=O)c1 [diclofenamide] | MSL |
| COc1cc(OC)cc(N(CCNC(C)C)c2ccc3ncc(-c4cnn(C)c4)nc3c2)c1 [erdafitinib] | MSL |
| COc1cc([C@@H]2c3cc4c(cc3[C@@H](O[C@@H]3O[C@@H]5CO[C@@H](C)O[C@H]5[C@H](O)[C@H]3O)[C@H]3COC(=O)[C@H]23)OCO4)cc(OC)c1OP(=O)(O)O [etoposide-phosphate] | MSL |
| Oc1ccc(C2=Cc3ccc(O)cc3OC2)cc1 [idronoxil] | MSL |
| COc1c2occc2c(OC)c2c(=O)cc(C)oc12 [khellin] | MSL |
| CCCOc1ccc(S(=O)(=O)N2CCN(CCO)CC2)cc1-c1nc2c(CCC)cn(CC)c2c(=O)[nH]1 [mirodenafil] | MSL |
| COc1cccc(C(=O)CCN[C@@H](C)[C@H](O)c2ccccc2)c1 [oxyfedrine] | MSL |

Same assay, conditions: subtype (IM, MSL or M) the PRISM compound sensitivity is associated with; training cell set (371 cell lines); 101 gene signature

| Compound | TNBCType train |
| --- | --- |
| CN1CC2c3ccccc3Oc3ccc(Cl)cc3C2C1 (centres unmarked) [asenapine] | MSL |
| O=C(/C=C/c1ccc(O)c(O)c1)OCCc1ccccc1 [caffeic-acid-phenethyl-ester] | MSL |
| O=C(Cn1ccnc1[N+](=O)[O-])NCCO [etanidazole] | MSL |
| CCOC(=O)c1ncn2c1CN(C)C(=O)c1cc(F)ccc1-2 [flumazenil] | MSL |
| O=P(O)(O)CP(=O)(O)O [medronic-acid] | MSL |
| CC[C@H](C)C(=O)O[C@H]1CCC=C2C=C[C@H](C)[C@H](CC[C@@H]3C[C@@H](O)CC(=O)O3)[C@H]21 [mevastatin] | MSL |

Same assay, conditions: subtype (IM, MSL or M) with which PRISM compound sensitivity is negatively correlated; training cell set, 101 gene signature

| Compound | TNBCType train |
| --- | --- |
| Cc1ccc2c(=O)c3cccc(CC(=O)O)c3oc2c1C [ASA-404] | MSL |
| O=C(Nc1ccccc1F)N[C@H]1N=C(c2ccccc2)c2ccccc2NC1=O [RSV604] | MSL |
| OC1CCC(Nc2nc(-c3ccccc3)nc3[nH]ccc23)CC1 (centres unmarked) [SLV-320] | MSL |
| CCOC(=O)COc1ccc2c(c1)C[C@@H](NC[C@H](O)c1cccc(Cl)c1)CC2 [amibegron] | MSL |
| CC(=O)OCC1=C(C(=O)O)N2C(=O)[C@@H](NC(=O)Cc3cccs3)[C@H]2SC1 [cephalothin] | MSL |
| CC(C)NC(=N)NC(=N)Nc1ccc(Cl)c(Cl)c1 [chlorproguanil] | MSL |
| N#CCC(=O)NN [cyacetacide] | MSL |
| Cc1ccc2c(c1)[C@]13CCCC[C@@H]1[C@H](C2)N(C)CC3 [dimemorfan] | MSL |
| N[C@H](C(=O)O)[C@H](O)c1ccc(O)c(O)c1 [droxidopa] | MSL |
| CSc1ccc(C(=O)c2[nH]c(=O)[nH]c2C)cc1 [enoximone] | MSL |
| CC1=C(CC(=O)O)c2cc(F)ccc2/C1=C\c1ccc(S(C)(=O)=O)cc1 [exisulind] | MSL |
| O=C(O)c1ccccc1OP(=O)(O)O [fosfosal] | MSL |
| O=C1NC(c2ccccc2)(c2ccccc2)C(=O)N1COP(=O)(O)O [fosphenytoin] | MSL |
| CC(C)(CO)CCCCCCC(C)(C)CO [gemcadiol] | MSL |
| COc1cc2nccc(Oc3ccc(NC(=O)NC4CC4)c(Cl)c3)c2cc1C(N)=O [lenvatinib] | MSL |
| CCN1CCC[C@H]1CNC(=O)c1cc(S(N)(=O)=O)ccc1OC [levosulpiride] | MSL |
| CNC(=O)c1cccc2cc(Oc3ccnc4cc(OCC5(N)CC5)c(OC)cc34)ccc12 [lucitanib] | MSL |
| COC(=O)c1ccc2c(c1)NC(=O)/C2=C(\Nc1ccc(N(C)C(=O)CN2CCN(C)CC2)cc1)c1ccccc1 [nintedanib] | MSL |
| CC(C)Oc1ccc(-c2nc(-c3cccc4c3CC[C@@H]4NCCO)no2)cc1C#N [ozanimod] | MSL |

Same assay, conditions: subtype (IM, MSL or M) with which compound sensitivity is negatively correlated; training cell set (371 cell lines), 101 gene signature

| Compound | TNBCType train |
| --- | --- |
| CC1=C(C(=O)Nc2cc3cn[nH]c3cc2F)C(c2ccc(C(F)(F)F)cc2)CC(=O)N1 (centres unmarked) [GSK429286A] | MSL |
| CC(O)c1cc(C(=O)N[C@@H](C)Cn2ccc(-c3ccc(C#N)c(Cl)c3)n2)[nH]n1 (some centres unmarked) [ODM-201] | MSL |
| CC(CC(C(N)=O)(c1ccccc1)c1ccccc1)N(C)C (centres unmarked) [aminopentamide] | MSL |
| CCOC(=O)OC(C)OC(=O)[C@@H]1N2C(=O)[C@@H](NC(=O)[C@H](N)c3ccccc3)[C@H]2SC1(C)C (some centres unmarked) [bacampicillin] | MSL |
| O=C(/C=C/c1ccc(O)c(O)c1)c1ccc(O)cc1O [butein] | MSL |
| CC(C)NCC(O)COc1cccc2[nH]c3ccccc3c12 (centres unmarked) [carazolol] | MSL |
| Oc1c(Cl)cc(Cl)c2cccnc12 [chloroxine] | MSL |
| CC(C)(Oc1ccc(Cl)cc1)C(=O)O [clofibric-acid] | MSL |
| O=C1c2cccc(O)c2C(=O)c2c(O)cccc21 [dantron] | MSL |
| CC[C@H](CC[C@@H](C)[C@H]1CC[C@H]2[C@@H]3CC=C4C[C@@H](O[C@@H]5O[C@H](CO)[C@@H](O)[C@H](O)[C@H]5O)CC[C@]4(C)[C@H]3CC[C@]12C)C(C)C [daucosterol] | MSL |
| O=C(OCC(O)CO)c1ccccc1Nc1ccnc2c(C(F)(F)F)cccc12 (centres unmarked) [floctafenine] | MSL |
| O=c1[nH]cnc2nc[nH]c12 [hypoxanthine] | MSL |
| C[C@@H](c1nc(-c2ccc(C#N)cc2)cs1)[C@](O)(Cn1cncn1)c1cc(F)ccc1F [isavuconazole] | MSL |
| CC(C(=O)O)c1cccc(C(=O)c2ccccc2)c1 (centres unmarked) [ketoprofen] | MSL |
| Cc1[nH]cnc1-c1ccc(Cl)cc1 [lofemizole] | MSL |

Same assay, conditions: subtype (IM, MSL, M) with which compound sensitivity correlates; test set

| Compound | TNBCType test |
| --- | --- |
| O=C(Nc1ccccc1F)N[C@H]1N=C(c2ccccc2)c2ccccc2NC1=O [RSV604] | MSL |
| COc1cc(OC)cc(N(CCNC(C)C)c2ccc3ncc(-c4cnn(C)c4)nc3c2)c1 [erdafitinib] | MSL/M |
| O=c1[nH]c2ccccc2n1C1CCN(CCOc2ccccc2)CC1 [oxiperomide] | MSL/M |

Same assay, conditions: subtype (IM, MSL, M) with which compound sensitivity correlates; training set

| Compound | TNBCType train |
| --- | --- |
| O=C(Nc1ccccc1F)N[C@H]1N=C(c2ccccc2)c2ccccc2NC1=O [RSV604] | MSL |
| COc1cc(OC)cc(N(CCNC(C)C)c2ccc3ncc(-c4cnn(C)c4)nc3c2)c1 [erdafitinib] | MSL |

Same assay, conditions: subtype with which compound sensitivity correlates; test cell lines

| Compound | TNBCType test |
| --- | --- |
| COc1cc(OC)cc(N(CCNC(C)C)c2ccc3ncc(-c4cnn(C)c4)nc3c2)c1 [erdafitinib] | MSL/M |
| CC[C@H](C)C(=O)O[C@H]1CCC=C2C=C[C@H](C)[C@H](CC[C@@H]3C[C@@H](O)CC(=O)O3)[C@H]21 [mevastatin] | MSL |

Same assay, conditions: subtype with which compound sensitivity correlates; training cell lines

| Compound | TNBCType train |
| --- | --- |
| COc1cc(OC)cc(N(CCNC(C)C)c2ccc3ncc(-c4cnn(C)c4)nc3c2)c1 [erdafitinib] | MSL |
| CC[C@H](C)C(=O)O[C@H]1CCC=C2C=C[C@H](C)[C@H](CC[C@@H]3C[C@@H](O)CC(=O)O3)[C@H]21 [mevastatin] | MSL |
